The target of series [1] is T1, α-Glucosidase from Saccharomyces cerevisiae (EC 3.2.1.20) (Saccharomyces cerevisiae, UniProt P53341).
T1 construct: purchased Sigma-Aldrich
Description: biochemical.

The target of series [2] is T1, α-Glucosidase from Saccharomyces cerevisiae (EC 3.2.1.20). Description: Enzyme inhibitory mechanism and kinetic type assay (Lineweaver-Burk plots). The series is classed as biochemical. As to conditions: compound 0–25 μM. From the text: To study the inhibitory mechanisms of all derivatives on α-glucosidase, enzyme inhibitory mechnism was detected using compound 4 with the strongest inhibitory. Figure 3A illustrated the plots of enzyme activity vs. enzyme concentration.
The kinetic type was also studied using Lineweaver-Burk plots.
α-Glucosidase from Saccharomyces cerevisiae (EC 3.2.1.20) and p-Nitrophenyl-α-D-[…] (p-NPG) were purchased from Sigma-Aldrich. All additional reagents and solvents were readily obtained from a commercial source. NMR spectra were obtained on 500 MHz equipment in CDCl3. High-resolution mass spectral (HRMS) data was recorded on Apex II using the ESI technique.
The α-glucosidase inhibitory activity of compounds (1 ∼ 6) was detected as described in previous reports ([Adisakwattana et al., 2009]; [Adisakwattana et al., 2013]; [Zhang et al., 2022]). 10 μl α-glucosidase solution, 10 μl compound were added into 80 μl phosphate buffer, and the mixture was incubated for 10 min. Then, 100 μl p-NPG solution was added into the mixture, followed by the absorbance change detection at 405 nm. The inhibition rate (%) = […] × 100%, where OD1 and OD0 were the absorbance of tested compound and blank, respectively. The IC50 value was calculated from the plot of inhibition rate vs. compound concentration. Acarbose was used as a positive sample. All samples were repeated four times. The enzyme inhibitory mechnism and kinetic type were also determined according to previous reported reports ([Adisakwattana et al., 2004]; [Song et al., 2016]).

SMILES strings stand for the structures.

T1 sequence (P53341 whole entry): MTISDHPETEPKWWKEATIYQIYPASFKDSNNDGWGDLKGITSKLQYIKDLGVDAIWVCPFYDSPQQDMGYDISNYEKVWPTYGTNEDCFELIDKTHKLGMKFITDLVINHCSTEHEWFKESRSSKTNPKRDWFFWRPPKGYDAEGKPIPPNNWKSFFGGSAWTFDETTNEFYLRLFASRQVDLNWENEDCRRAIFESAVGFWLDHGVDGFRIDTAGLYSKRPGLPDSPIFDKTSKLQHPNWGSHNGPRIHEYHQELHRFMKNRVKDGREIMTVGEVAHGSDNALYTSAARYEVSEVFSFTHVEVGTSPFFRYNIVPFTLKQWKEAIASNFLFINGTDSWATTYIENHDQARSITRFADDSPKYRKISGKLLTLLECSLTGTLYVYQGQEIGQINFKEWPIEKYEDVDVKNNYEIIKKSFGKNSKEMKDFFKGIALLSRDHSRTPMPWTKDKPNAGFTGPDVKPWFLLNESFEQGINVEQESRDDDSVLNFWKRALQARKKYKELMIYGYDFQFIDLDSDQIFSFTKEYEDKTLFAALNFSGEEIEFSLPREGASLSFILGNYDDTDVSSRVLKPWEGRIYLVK

`O=C(CCc1ccccc1)Oc1ccc(-c2cc(=O)c3ccccc3o2)cc1` [Compound 1]: the melting point lay within 133 to 134 °C. In series [1], this molecule yielded an IC50 of 42.06 ± 0.08 µM.

Turning to `Cc1ccc(CCC(=O)Oc2ccc(-c3cc(=O)c4ccccc4o3)cc2)cc1` [Compound 2], the melting point was 135 to 136 °C. In series [1], this molecule showed an IC50 of 21.55 ± 0.13 µM.

Take `O=C(CCc1ccc(Cl)cc1)Oc1ccc(-c2cc(=O)c3ccccc3o2)cc1` [Compound 3]: the melting point fell in the range of 112 to 114 °C. This molecule yielded an IC50 in series [1] of 31.09 ± 0.1 µM.

Turning to `O=C(CCc1ccc(Br)cc1)Oc1ccc(-c2cc(=O)c3ccccc3o2)cc1` [Compound 4], the melting point fell in the range of 127 to 129 °C. In series [2], the “Inhibition type (Lineweaver-Burk plots of enzyme activity vs. substrate concentration)” value is “mix-type inhibition” and the “Inhibitory mechanism (plots of enzyme activity vs. enzyme concentration)” value is “reversible inhibitor”. Besides, in series [2] (listed as derivative four), the “Inhibition type (Lineweaver-Burk plots of enzyme activity vs. substrate concentration)” value was “mixed-type inhibitor” and the “Inhibitory mechanism (plots of enzyme activity vs. enzyme concentration)” value was “reversible”. The IC50 in series [1] came out at 15.7 ± 0.21 µM.

As to `O=C(CCc1ccc(F)cc1)Oc1ccc(-c2cc(=O)c3ccccc3o2)cc1` [Compound 5], the melting point lay in the range of 103 to 104 °C. It took 19.66 ± 0.04 µM to reach half-maximal inhibition in series [1] (IC50).

`O=C(CCc1ccc(C(F)(F)F)cc1)Oc1ccc(-c2cc(=O)c3ccccc3o2)cc1` [Compound 6] showed a melting point of 250 to 251 °C. Also, 27.54 ± 0.02 µM corresponded to half-maximal inhibition in series [1] (IC50).

These data come from publication PMC9705736, “Synthesis of activity evaluation of flavonoid derivatives as ɑ-glucosidase inhibitors” (Frontiers in Chemistry, 2022).
